Values after ≈ are worked out from the molar mass of the structure shown. Values joined by “and” are separate entries in the source; they are usually repeats but may differ in a detail not shown here. Equal entries are not always repeated. Where two headings read alike, the source gives them in different places.
What was measured:
[1] = biological target: T1, EGF-R Kinase (recombinant enzyme) (Homo sapiens, UniProt P00533); assay: Inhibition of Epidermal Growth Factor Receptor Kinase (EGF-R) using recombinant enzyme, RR-SRC peptide phosphorylation with 33P-ATP; type: biochemical; details: for inhibition at 0.5 µM: 0.5 µM concentration of test compound, read-out: % Inhibition @ 0.5
T1 construct: containing the EGFR cDNA encoding amino acids 645 - 1186 preceded by Met-Ala-(His)6; made in house; host or cells: Sf9 insect cells infected with recombinant baculovirus vHcEGFR52
T1 sequence (P00533 669-1210): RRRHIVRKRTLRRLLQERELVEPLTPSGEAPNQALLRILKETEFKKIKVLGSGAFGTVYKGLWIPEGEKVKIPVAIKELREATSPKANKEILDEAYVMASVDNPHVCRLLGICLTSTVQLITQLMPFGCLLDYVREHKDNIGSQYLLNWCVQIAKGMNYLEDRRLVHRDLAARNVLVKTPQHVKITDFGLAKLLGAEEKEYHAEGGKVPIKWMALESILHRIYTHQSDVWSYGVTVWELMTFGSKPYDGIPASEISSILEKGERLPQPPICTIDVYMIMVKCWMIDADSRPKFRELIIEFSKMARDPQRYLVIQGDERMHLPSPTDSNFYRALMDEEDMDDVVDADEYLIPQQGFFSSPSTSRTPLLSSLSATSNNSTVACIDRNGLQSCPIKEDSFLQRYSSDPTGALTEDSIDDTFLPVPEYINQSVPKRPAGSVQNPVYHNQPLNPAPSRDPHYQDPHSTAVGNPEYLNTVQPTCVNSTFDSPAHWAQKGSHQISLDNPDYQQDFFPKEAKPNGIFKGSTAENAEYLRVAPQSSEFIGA
Experimental: Representative test compounds were evaluated for their ability to inhibit the phosphorylation of the tyrosine residue of a peptide substrate catalyzed by the enzyme epidermal growth factor receptor kinase. […] The enzyme used in this assay is the His-tagged cytoplasmic domain of EGFR. A recombinant baculovirus (vHcEGFR52) was constructed containing the EGFR cDNA encoding amino acids 645 - 1186 preceded by Met-Ala-(His)6 . Sf9 cells in 100 mm plates were infected at an moi of 10 pfu/cell and cells were harvested 48 h post infection. A cytoplasmic extract was prepared using 1% Triton X-100 and applied to Ni-NTA column. After washing the column with 20 mM imidazole, HcEGFR was eluted with 250 mM imidazole (in 50 mM Na2HPO4, pH 8.0, 300 mM NaCl). Fractions collected were dialyzed against 10 mM HEPES, pH 7.0, 50 mM NaCl, 10% glycerol, 1ug/mL antipain and leupeptin and 0.1 mM Pefabloc SC. The protein was frozen in dry ice/methanol and stored -70° C.
Test compounds were made into 10 mg/mL stock solutions in 100% dimethylsulfoxide (DMSO). Prior to experiment, stock solutions were diluted to 500 uM with 100% DMSO and then serially diluted to the desired concentration with HEPES buffer (30 mM HEPES pH 7.4).
For the enzyme reaction, 10 uL of each inhibitor (at various concentrations) were added to each well of a 96-well plate. To this was added 3 uL of enzyme (1:10 dilution in 10mM HEPES, pH 7.4 for final conc. of 1:120). This was allowed to sit for 10 min on ice and was followed by the addition of 5 ul peptide (80 uM final conc.), 10ul of 4X Buffer (Table A), 0.25 uL ^33P-ATP and 12 uL H2O. The reaction was allowed to run for 90 min at room temperature and was followed by spotting the entire volume on to precut P81 filter papers. The filter discs were washed 2X with 0.5% phosphoric acid and radioactivity was measured using a liquid scintillation counter. Table A
The IC50 is the concentration of test compound needed to reduce the total amount of phosphorylated substrate by 50%. The % inhibition of the test compound was determined for at least three different concentrations and the IC50 value was evaluated from the dose response curve. […] CPM(control) is in units of counts per minute and was a number expressing the amount of radiolabeled ATP (γ-^33P) incorporated into the RR-SRC peptide substrate by the enzyme after 90 minutes at room temperature in the absence of test compound as measured by liquid scintillation counting. The CPM values were corrected for the background counts produced by ATP in the absence of the enzymatic reaction. Where it was possible to determine an IC50 value, this is reported in TABLE 1 otherwise the % inhibition at 0.5 µM concentration of test compound is shown in TABLE 1.

[2] = biological target: Mitogen Activated Protein Kinase (Mek-Erk) (Homo sapiens, UniProt P28482+Q02750); assay: Mitogen Activated Protein Kinase (MAPK) coupled MEK 1 / ERK2 assay; type: biochemical; details: separate entries = evaluated more than one time
Sequence of Mitogen Activated Protein Kinase (Mek-Erk) (P28482 2-360): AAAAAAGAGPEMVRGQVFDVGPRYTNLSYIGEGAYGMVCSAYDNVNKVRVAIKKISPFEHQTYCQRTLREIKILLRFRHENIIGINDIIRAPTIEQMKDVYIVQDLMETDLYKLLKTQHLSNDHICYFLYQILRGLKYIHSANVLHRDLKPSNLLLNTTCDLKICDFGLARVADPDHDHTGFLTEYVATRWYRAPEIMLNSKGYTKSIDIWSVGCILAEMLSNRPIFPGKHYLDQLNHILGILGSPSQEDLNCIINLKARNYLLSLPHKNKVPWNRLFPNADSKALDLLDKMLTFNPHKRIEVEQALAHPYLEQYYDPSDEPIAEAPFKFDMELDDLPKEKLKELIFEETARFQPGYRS
Sequence of Mitogen Activated Protein Kinase (Mek-Erk) (Q02750 whole entry): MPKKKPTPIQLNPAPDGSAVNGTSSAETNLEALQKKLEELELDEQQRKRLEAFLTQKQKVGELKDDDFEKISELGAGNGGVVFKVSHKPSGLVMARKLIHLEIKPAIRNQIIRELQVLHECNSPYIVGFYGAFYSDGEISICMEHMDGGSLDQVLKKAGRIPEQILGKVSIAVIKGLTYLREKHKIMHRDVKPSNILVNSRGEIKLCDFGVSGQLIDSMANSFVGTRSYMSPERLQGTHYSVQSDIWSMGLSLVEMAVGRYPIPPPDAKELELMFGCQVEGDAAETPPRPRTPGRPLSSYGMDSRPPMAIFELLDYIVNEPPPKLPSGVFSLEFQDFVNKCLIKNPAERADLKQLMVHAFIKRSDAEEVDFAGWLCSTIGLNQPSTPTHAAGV
Experimental: To evaluate inhibitors of the MAP (mitogen activated protein) kinase a two component coupled standard pharmacological test procedure, which measures phosphorylation of a serine/threonine residue in an appropriate sequence in the substrate in the presence and absence of a putative inhibitor, was used. Recombinant human MEK 1 (MAPKK) was first used to activate recombinant human ERK2 (MAPK) and the activated MAPK (ERK) was incubated with substrate (MBP peptide or MYC peptide) in the presence of ATP, Mg^+2 and radiolabeled ^33P ATP. The phosphorylated peptide was captured on a P 81 phosphocellulose filter (paper filter or embedded in microtiter plate) washed and counted by scintillation methods.
The peptide substrates used in the assay are MBP, peptide substrate ([…]), or synthetic Myc substrate, ([…]•5 TFA. The recombinant enzymes used were prepared as GST fusion proteins of human ERK 2 and human MEK 1. Inhibitor samples were prepared as 10X stocks in 10% DMSO and an appropriate aliquot was used to deliver either 10 ug/ml for a single point screening dose or 100, 10, 1, and 0.1 uM final concentration for a dose response curve. Final DMSO concentrations were less than or equal to 1%.
The reaction was run as follows in 50 mM Tris kinase buffer, pH 7.4 in a reaction volume of 50 ul. The appropriate volume of kinase buffer and inhibitor sample was added to the tube. Appropriate dilution of enzyme was delivered to give 2-5 ug recombinant MAPK (Erk ) per tube. The inhibitor was incubated with MAPK (Erk) for 30 min at 0 deg. C. Recombinant Mek (MAPKK) ( 0.5-2.5 ug) or fully activated Mek (0.05-0.1 units) was added to activate the Erk and incubated for 30 min at 30° C. Then substrate and gamma ^33P ATP was were added to give a final concentration of 0.5- 1 mM MBPP or 250-500 uM Myc; 0.2-0.5 uCi gamma ^33P ATP/tube; 50 µM ATP final concentration. Samples were incubated at 30°C for 30 minutes and the reaction was stopped by adding 25 µl of ice cold 10 %TCA. After samples were chilled on ice for 30 min, 20 µl of sample was transferred onto P 81 phosphocellulose filter paper or appropriate MTP with embedded P 81 filter. Filter papers or MTP were washed 2 times with a large volume of 1% acetic acid, then 2 times with water. The filters or MTP were briefly air dried before addition of scintillant and samples were counted in the appropriate scintillation counter set up for reading ^33P isotope. Samples included a positive control (activated enzyme plus substrate); a no enzyme control; a no substrate control; samples with different concentrations of putative inhibitor; and samples with reference inhibitors (other active compounds or non-specific inhibitors such as staurosporine or K252 B).
The raw data was captured as cpm. Sample replicates were averaged and corrected for background count. Mean cpm data was tabulated by group and % inhibition by a test compound was calculated as (corrected cpm control- corrected. cpm sample/control) X 100 = % inhibition. If several concentrations of inhibitor were tested, IC50 values (the concentration which gives 50% inhibition) were determined graphically from the dose response curve for % inhibition or by an appropriate computer program. The results obtained for representative compounds of this invention are listed in TABLE 3 where there may be separate entries for the same compound; this is an indication that the compound was evaluated more than one time.

A2780S = assay: Inhibition of Cancer Cell Growth as Measured by Cell Number (Sulforhodamine B); type: cell-based, Human; details: 48 hours exposure
Experimental: (§1) After 48 hours exposure to test compounds, cells were fixed with trichloroacetic acid, and stained with Sulforhodamine B. After washing with trichloroacetic acid, bound dye was solubilized in 10 mM Tris base and optical density was determined using a plate reader. Under conditions of the assay the optical density is proportional to the number of cells in the well. […] The test procedure is described in details by Philip Skehan et. al, J.Natl. Canc. […] The Her2Neu cell line is a 3T3 line that has bbeen transfected with Her2 receptor kinase.

A431 = assay: as above; type: cell-based, Human; details: 48 hours exposure
Experimental: as §1

SKBR3 = assay: as above; type: cell-based, Human
Experimental: as §1

A2780DDP = assay: as above; type: cell-based, Human; details: 48 hours exposure
Experimental: as §1

MDA435 = assay: as above; type: cell-based, Human; details: 48 hours exposure
Experimental: as §1

SW620 = assay: as above; type: cell-based, Human
Experimental: as §1

[3] = recombinant His-tagged cytoplasmic domain of EGFR, RR-SRC peptide, 90 min at room temperature, read-out: IC50
[4] = Homo sapiens, 48 h, read-out: IC50
[5] = Homo sapiens, A-431, 48 h, read-out: IC50
[6] = Homo sapiens, SK-BR-3, 48 hours exposure, read-out: IC50
[7] = Homo sapiens, MDA435, 48 h, read-out: IC50
[8] = Homo sapiens, SW-620, 48 hours exposure, read-out: IC50

N#Cc1cnc2ncc([N+](=O)[O-])cc2c1Nc1cccc(Br)c1 [Example 21, 4-(3-Bromo-phenylamino)-6-nitro-[1.8]naphthyridine-3-carbonitrile]
IC50 [1, 3]: 0.003 µM

N#Cc1cnc2ncc(N)cc2c1Nc1cccc(Br)c1 [Example 22, 6-Amino-4-(3-bromo-phenylamino)-[1.8]naphthyridine-3-carbonitrile]
IC50 [1, 3]: 0.05 µM
IC50 [2]: > 100 µM

C=CC(=O)Nc1cnc2ncc(C#N)c(Nc3cccc(Br)c3)c2c1 [Example 23, N-[5-(3-Bromo-phenylamino)-6-cyano-[1.8]naphthyridin-3-yl]-acrylamide]
IC50 [1]: 0.007 µM
IC50 ([2]; read-out: IC50): > 100 µM and 100 µM

N#Cc1cnc2ncc([N+](=O)[O-])cc2c1Nc1ccc(F)c(Cl)c1 [Example 25, 4-(3-Chloro-4-fluoro-phenylamino)-6-nitro-[1.8]naphthyridine-3-carbonitrile]
IC50 [1, 3]: 0.1 µM

N#Cc1cnc2ncc(N)cc2c1Nc1ccc(F)c(Cl)c1 [Example 26, 6-Amino-4-(3-chloro-4-fluoro-phenylamino)-[1.8]naphthyridine-3-carbonitrile]
IC50 ([2]; read-out: IC50): > 100 µM

CC#CC(=O)Nc1cnc2ncc(C#N)c(Nc3ccc(F)c(Cl)c3)c2c1 [Example 27, But-2-ynoic acid [5-(3-chloro-4-fluoro-phenylamino)-6-cyano-[1.8]-naphthyridin-3-yl]-amide]
IC50 [2]: > 100 µM

N#Cc1cnc2ncc(NC(=O)CCl)cc2c1Nc1cccc(Br)c1 [Example 28, N-[5-(3-Bromo-phenylamino)-6-cyano-[1.8]naphthyridin-3-yl]-2-chloro-acetamide]
IC50 ([2]; read-out: IC50): 6 µM

CN(C)CC=CC(=O)Nc1cnc2ncc(C#N)c(Nc3cccc(Br)c3)c2c1 [Example 30, 4-Dimethylamino-but-2-enoic acid [5-(3-bromo-phenylamino)-6-cyano-[1.8]naphthyridin-3-yl]-amide]
IC50 (A2780S; [4]): 1.77 µg/mL (≈ 3.92 µM)
IC50 (A431; [5]): 2.76 µg/mL (≈ 6.12 µM)
IC50 (SKBR3; [6]): 4.83 µg/mL (≈ 10.7 µM)
IC50 (A2780DDP; [4]): 4 µg/mL (≈ 8.87 µM)
IC50 (MDA435; [7]): > 5 µg/mL
IC50 (SW620; [8]): > 5 µg/mL
inhibition at 0.5 µM [1]: 47%
IC50 [1, 3]: 0.8 µM
IC50 ([2]; read-out: IC50): 50 µM

CCOc1ccc2ncc(C#N)c(Nc3cccc(Br)c3)c2n1 [Example 35, 4-(3-Bromo-phenylamino)-6-ethoxy-[1.5]naphthyridine-3-carbonitrile]
inhibition at 0.5 µM [1]: 9%
IC50 [1, 3]: > 10 µM
IC50 [2]: > 100 µM

N#Cc1cnc2cccnc2c1Nc1cccc(Br)c1 [Example 37, 4-(3-Bromophenylamino)-[1.5]naphthyridine-3-carbonitrile]
IC50 ([2]; read-out: IC50): > 100 µM

N#Cc1cnc2ccc(N)nc2c1Nc1cccc(Br)c1 [Example 49, 6-Amino-4-(3-bromo-phenylamino)-[1.5]naphthyridine-3-carbonitrile]
IC50 [2]: 25 µM

N#Cc1cnc2cnc(F)cc2c1Nc1cccc(Br)c1 [Example 57, 4-(3-Bromo-phenylamino)-6-fluoro-[1.7]naphthyridine-3-carbonitrile]
IC50 (A2780S; [4]): 3.33 µg/mL (≈ 9.7 µM)
IC50 (A431; [5]): 3.92 µg/mL (≈ 11.4 µM)
IC50 (SKBR3; [6]): > 5 µg/mL
IC50 (A2780DDP; [4]): > 5 µg/mL
IC50 (MDA435; [7]): > 5 µg/mL
IC50 (SW620; [8]): > 5 µg/mL
IC50 [1, 3]: 0.008 µM
IC50 [2]: > 100 µM

COc1ccc(CNc2cc3c(Nc4cccc(Br)c4)c(C#N)cnc3cn2)cc1 [Example 58, 4-(3-Bromo-phenylamino)-6-(4-methoxy-benzylamino)-[1.7]naphthyridine-3-carbonitrile]
IC50 (A2780S; [4]): 1 µg/mL (≈ 2.17 µM)
IC50 (A431; [5]): 0.4 µg/mL (≈ 0.869 µM)
IC50 (SKBR3; [6]): 2.9 µg/mL (≈ 6.3 µM)
IC50 (A2780DDP; [4]): 1.8 µg/mL (≈ 3.91 µM)
IC50 (MDA435; [7]): 2.4 µg/mL (≈ 5.21 µM)
IC50 (SW620; [8]): 4.1 µg/mL (≈ 8.91 µM)
IC50 [1, 3]: > 0.1 µM
IC50 [2]: > 100 µM

N#Cc1cnc2cnc(N)cc2c1Nc1cccc(Br)c1 [Example 59, 6-Amino-4-(3-bromo-phenylamino)-[1.7]naphthyridine-3-carbonitrile]
IC50 (A2780S; [4]): 3.5 µg/mL (≈ 10.3 µM)
IC50 (A431; [5]): 0.4 µg/mL (≈ 1.18 µM)
IC50 (SKBR3; [6]): 4.1 µg/mL (≈ 12.1 µM)
IC50 (A2780DDP; [4]): 3.1 µg/mL (≈ 9.11 µM)
IC50 (MDA435; [7]): > 5 µg/mL
IC50 (SW620; [8]): > 5 µg/mL
IC50 [1, 3]: 0.0007 µM

C[Si](C)(C)C#Cc1cc2c(Nc3cccc(Br)c3)c(C#N)cnc2cn1 [Example 85, 4-(3-Bromo-phenylamino)-6-trimethylsilanylethynyl-[1.7]naphthyridine-3-carbonitrile]
IC50 (A2780S): 2.344 µg/mL (≈ 5.56 µM)
IC50 (A431): 3.056 µg/mL (≈ 7.25 µM)
IC50 (SKBR3; 48 hours exposure): 3.591 µg/mL (≈ 8.52 µM)
IC50 (A2780DDP): 2.969 µg/mL (≈ 7.05 µM)
IC50 (MDA435): 4.203 µg/mL (≈ 9.97 µM)
IC50 (SW620; 48 hours exposure): 4.724 µg/mL (≈ 11.2 µM)

Source: patent EP1171440B1, “SUBSTITUTED-3-CYANO-[1.7],[1.5], AND [1.8]-NAPHTHYRIDINE INHIBITORS OF TYROSINE KINASES” (Wyeth Holdings Corporation, priority 1999, dated 2000)
